Read-outs that look alike come from different tables or passages of the source.
Tests used:
[1] = tested on: MDA-MB231 cells; test: In vitro assay 2: BCAT cellular assay, leucine in medium of MDA-MB231 cells; assay type: cell-based; conditions: 24 hours incubation, leucine level in medium (LeuDH/diaphorase/resazurin readout), read-out: MDAMB-231 IC50
Description: In Vitro Assay 2: BCAT Cellular Assay
Levels of leucine were measured in medium of different tumor cell lines. The enzyme BOAT (Branched chain amino acid transferase) catalyzes the consumption of leucine.
Cells (U87-MG and MDA-MB231 from ATCC) were grown in Dulbecco's Modified Eagle Medium (DMEM) containing 10% fetal calf serum. They were harvested by trypsin and seeded into 96-well plates. Cells were incubated overnight at 37° C. in an atmosphere containing 5% carbon dioxide. The next day test compounds were added to each cell well. The final concentration of dimethylsulfoxide (DMSO) was 0.1% and DMSO controls were included. The plates were then placed in an incubator for 24 hours.
Leucine was measured in an enzymatic readout with leucine dehydrogenase (LeuDH) and diaphorase. Medium is deproteinized with perchloric acid. 30 μl of 1 M aqueous perchloric acid was added to each well and the plates were centrifuged.

[2] = target: T1, recombinant human BCAT1 enzyme (Homo sapiens, UniProt P54687); test: In vitro assay 1a: BCAT1 biochemical assay (coupled LeuDH/NADH fluorescence readout)
T1 construct: purchased ATGen (South Korea) ATGP1479
T1 sequence (P54687 1-386): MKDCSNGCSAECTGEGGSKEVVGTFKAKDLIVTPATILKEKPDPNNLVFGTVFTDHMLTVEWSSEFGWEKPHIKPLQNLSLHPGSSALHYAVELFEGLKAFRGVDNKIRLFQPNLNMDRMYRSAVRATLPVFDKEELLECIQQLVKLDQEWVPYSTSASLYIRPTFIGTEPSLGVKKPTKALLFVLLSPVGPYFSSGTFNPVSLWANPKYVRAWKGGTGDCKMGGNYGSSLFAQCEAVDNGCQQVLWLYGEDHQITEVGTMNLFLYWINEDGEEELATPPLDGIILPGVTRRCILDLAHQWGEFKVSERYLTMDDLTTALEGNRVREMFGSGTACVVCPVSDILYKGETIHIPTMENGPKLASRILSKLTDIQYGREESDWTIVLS
Description: (§1) In Vitro Assay 1a and 1b: BCAT1 and BCAT2 Biochemical Assay
(§2) BOAT (Branched chain amino acid transferase) catalyzes transamination of the branched chain amino acid leucine to α-ketoisocaproate (KIC). The BOAT enzymatic reaction was measured in a coupled readout with leucine dehydrogenase (LeuDH) which catalyzes the Nicotinamide adenine dinucleotide (NADH) dependent reduction of KIC to leucine. NADH consumption is measured by fluorescent readout.
(§3) The biochemical reactions were performed at 32° C. in 384-well plates using a reaction volume of 51 μl and the following assay buffer conditions: 50 mM HEPES (2-[4-(2-hydroxyethyl)piperazin-1-yl]ethanesulfonic acid) pH 8.0, 50 mM aqueous solution of ammonium sulfate, 1 mM ethylenediaminetetraacetic acid, 2 mM dithiothreitol, 0.01% bovine serum albumine, 0.005% Brij 35 detergent, 0.5 μM PLP (pyridoxalphosphate), 10 μM NADH, and 50 μM α-ketoglutarate), and 100 μM leucine. […] Test compounds were used in a concentration range between 0.005 and 30 μM. The final DMSO concentration was 2%.
(§4) The reaction was initiated by addition of substrates (Leucine, α-KG, NADH).

[3] = target: T2, recombinant human BCAT2 enzyme (Homo sapiens, UniProt O15382); test: In vitro assay 1b: BCAT2 biochemical assay (coupled LeuDH/NADH fluorescence readout); conditions: recombinant human BCAT2 […], 32° C., 100 μM leucine, 50 μM α-ketoglutarate, NADH fluorescence over 90 min; read-out: BCAT2 IC50; further: recombinant human BCAT2 0.75 nM
T2 construct: purchased ATGen (South Korea) ATGP1523
T2 sequence (O15382 28-392): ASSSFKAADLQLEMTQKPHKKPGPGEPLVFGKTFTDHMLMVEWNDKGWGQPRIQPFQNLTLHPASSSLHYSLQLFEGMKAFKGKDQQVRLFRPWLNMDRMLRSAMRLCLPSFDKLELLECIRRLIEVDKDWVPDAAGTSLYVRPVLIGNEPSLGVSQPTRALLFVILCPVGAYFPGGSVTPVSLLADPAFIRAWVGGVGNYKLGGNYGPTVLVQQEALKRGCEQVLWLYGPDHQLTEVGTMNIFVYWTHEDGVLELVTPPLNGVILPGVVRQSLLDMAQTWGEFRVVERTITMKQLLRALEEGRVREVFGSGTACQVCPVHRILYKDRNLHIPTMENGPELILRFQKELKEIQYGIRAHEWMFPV
Description: as §1, §2, §3, §4

[4] = recombinant human BCAT1 […], 32° C., 100 μM leucine, 50 μM α-ketoglutarate, NADH fluorescence over 90 min, read-out: BCAT1 IC50

| IC50 ([1]; Homo sapiens, MDA-MB-231, 24 h) [µM] | IC50 [3] [µM] | IC50 [2, 4] [M] | SMILES | IC50 ([2]; BCAT1 IC50 [M]) [M] | IC50 [1] [µM] |
| --- | --- | --- | --- | --- | --- |
| > 30 | 4 | 7e-07 | COc1cc(C#N)c(Oc2ccccc2C)cc1-n1c(=O)cc(S(C)(=O)=O)[nH]c1=O (racemic) [Example 79, 4-[4-(Methanesulfonyl)-2,6-dioxo-3,6-dihydropyrimidin-1(2H)-yl]-5-methoxy-2-(2-methylphenoxy)benzonitrile (rac)] | – | – |
| 30 | – | 1.8e-07 | COc1cc(C#N)c(Oc2ccccc2C)cc1-n1c(=O)cc(C2CC2)[nH]c1=O (racemic) [Example 23, 4-(4-Cyclopropyl-2,6-dioxo-3,6-dihydropyrimidin-1(2H)-yl)-5-methoxy-2-(2-methylphenoxy)benzonitrile (rac)] | – | > 30 |
| > 30 | 3.5 | 2e-07 | COc1cc(C#N)c(Oc2ccccc2C)cc1-n1c(=O)cc(Br)[nH]c1=O (racemic) [Example 19, 4-[4-Bromo-2,6-dioxo-3,6-dihydropyrimidin-1(2H)-yl]-5-methoxy-2-(2-methylphenoxy)benzonitrile (rac)] | – | – |
| – | 5 | 1.5e-06 | Cc1cccc(C)c1Oc1cc(-n2c(=O)cc(C(F)(F)c3ccccc3)[nH]c2=O)c(F)cc1C#N [Example 57, 4-{4-[Difluoro(phenyl)methyl]-2,6-dioxo-3,6-dihydropyrimidin-1(2H)-yl}-2-(2,6-dimethylphenoxy)-5-fluorobenzonitrile] | – | – |
| > 30 | 0.452 | – | COc1cc(C#N)c(Oc2ccccc2C)cc1-n1c(=O)cc(S(=O)(=O)c2ccccc2)[nH]c1=O (racemic) [Example 76, 4-[4-(Benzenesulfonyl)-2,6-dioxo-3,6-dihydropyrimidin-1(2H)-yl]-5-methoxy-2-(2-methylphenoxy)benzonitrile (rac)] | – | 20 |
| – | 2.6 | 2e-07 | Cc1ccccc1Oc1cc(-n2c(=O)cc(C(F)(F)F)[nH]c2=O)c(Br)cc1C#N (racemic) [Example 18, 5-Bromo-4-[2,6-dioxo-4-(trifluoromethyl)-3,6-dihydropyrimidin-1(2H)-yl]-2-(2-methylphenoxy)benzonitrile (rac)] | – | – |

The next lines start with the compound.

| SMILES | IC50 ([1]; Homo sapiens, MDA-MB-231, 24 h) [µM] | IC50 [3] [µM] | IC50 [2, 4] [M] | IC50 ([2]; BCAT1 IC50 [M]) [M] | IC50 [1] [µM] |
| --- | --- | --- | --- | --- | --- |
| COc1cc(C#N)c(Oc2ccccc2C)cc1-n1c(=O)cc(C(F)(F)F)[nH]c1=O (racemic) [Example 4, 4-[2,6-Dioxo-4-(trifluoromethyl)-3,6-dihydropyrimidin-1(2H)-yl]-5-methoxy-2-(2-methylphenoxy)benzonitrile (rac)] | > 30 | – | – | 1.62e-07 | – |
| Cc1cccc(N)c1Oc1cc(-n2c(=O)cc(C(F)(F)F)[nH]c2=O)c(F)cc1C#N [Example 65, 2-(2-Amino-6-methylphenoxy)-4-[2,6-dioxo-4-(trifluoromethyl)-3,6-dihydropyrimidin-1(2H)-yl]-5-fluorobenzonitrile] | > 30 | 5.5 | 5e-07 | – | – |
| COc1cc(C#N)c(Oc2ccccc2C)cc1-n1c(=O)cc(C(F)(F)F)[nH]c1=O (single isomer, unassigned) [Example 6, 4-[2,6-Dioxo-4-(trifluoromethyl)-3,6-dihydropyrimidin-1 (2H)-yl]-5-methoxy-2-(2-methylphenoxy)benzonitrile (atrop 2)] | – | – | – | 6.25e-07 | > 30 |
| Cc1cccc(C)c1Oc1cc(-n2c(=O)cc(C(F)(F)F)[nH]c2=O)ccc1C#N [Example 48, 2-(2,6-Dimethylphenoxy)-4-[2,6-dioxo-4-(trifluoromethyl)-3,6-dihydropyrimidin-1 (2H)-yl]benzonitrile] | 25 | 4.15 | 6.97e-07 | – | – |
| Cc1ccccc1Oc1cc(-n2c(=O)cc(S(=O)(=O)c3ccccc3)[nH]c2=O)c(F)cc1C#N [Example 74, 4-[4-(Benzenesulfonyl)-2,6-dioxo-3,6-dihydropyrimidin-1(2H)-yl]-5-fluoro-2-(2-methylphenoxy)benzonitrile] | > 30 | – | – | – | 30 |
| N#Cc1cc(F)c(-n2c(=O)cc(C(F)(F)F)[nH]c2=O)cc1Oc1c(F)cccc1F [Example 63, 2-(2,6-Difluorophenoxy)-4-[2,6-dioxo-4-(trifluoromethyl)-3,6-dihydropyrimidin-1 (2H)-yl]-5-fluorobenzonitrile] | > 30 | – | – | – | – |

From US20220411381A1, “PYRIMIDINEDIONE DERIVATIVES” (Bayer Aktiengesellschaft, priority 2019, published 2022)
